Data: publication PMC8658824, “ThermoSlope: A Software for Determining Thermodynamic Parameters from Single Steady-State Experiments” (Molecules, 2021)

How the values were obtained:
[1] = target: T1, Pseudoalteromonas haloplanktis α-amylase (AHA) (Pseudoalteromonas haloplanktis, UniProt P29957); experiment: colourimetric, […] nm, temperature gradient (ThermoSlope); assay type: biochemical; conditions: phosphate buffered saline; 60 nM enzyme; 283-306 K, 1 K/min
T1 construct: gene amy; recombinant, E. coli, same protocol as pLipA (IMAC, then HiTrap SP)
T1 sequence (P29957 25-477): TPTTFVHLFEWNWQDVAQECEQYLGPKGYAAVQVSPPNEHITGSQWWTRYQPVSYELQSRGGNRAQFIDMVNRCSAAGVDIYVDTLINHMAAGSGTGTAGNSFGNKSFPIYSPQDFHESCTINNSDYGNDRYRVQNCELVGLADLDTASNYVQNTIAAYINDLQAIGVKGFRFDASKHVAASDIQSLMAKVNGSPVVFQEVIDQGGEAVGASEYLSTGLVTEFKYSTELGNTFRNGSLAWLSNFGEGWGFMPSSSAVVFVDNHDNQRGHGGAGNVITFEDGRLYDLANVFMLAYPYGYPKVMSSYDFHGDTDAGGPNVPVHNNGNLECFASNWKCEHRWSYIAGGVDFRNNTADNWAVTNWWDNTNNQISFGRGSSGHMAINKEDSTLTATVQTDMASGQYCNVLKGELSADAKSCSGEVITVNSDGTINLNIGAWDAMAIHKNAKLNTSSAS

[2] = target: T2, Pig porcine α-amylase (PPA) (Sus scrofa, UniProt P00690); experiment: as above; assay type: biochemical; conditions: phosphate buffered saline; 0.45 nM enzyme; 283-363 K, 1 K/min
T2 construct: gene AMY2; commercial native enzyme (Sigma-Aldrich A4268)
T2 sequence (P00690 16-511): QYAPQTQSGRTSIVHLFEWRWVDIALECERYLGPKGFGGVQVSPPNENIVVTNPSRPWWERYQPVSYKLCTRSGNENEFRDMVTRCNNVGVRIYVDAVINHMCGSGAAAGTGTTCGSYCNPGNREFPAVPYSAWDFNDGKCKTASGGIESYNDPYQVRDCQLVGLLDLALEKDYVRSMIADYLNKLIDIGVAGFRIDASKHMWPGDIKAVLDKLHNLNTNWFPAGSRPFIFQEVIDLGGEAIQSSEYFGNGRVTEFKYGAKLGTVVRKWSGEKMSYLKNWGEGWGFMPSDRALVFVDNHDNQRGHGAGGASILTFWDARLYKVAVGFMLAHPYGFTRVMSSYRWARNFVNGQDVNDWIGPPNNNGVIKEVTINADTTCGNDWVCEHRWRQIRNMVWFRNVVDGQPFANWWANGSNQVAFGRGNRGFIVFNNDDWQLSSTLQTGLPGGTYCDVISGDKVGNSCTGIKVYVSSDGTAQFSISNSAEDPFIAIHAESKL

[3] = target: T3, Bacillus licheniformis α-amylase (BLA) (Bacillus licheniformis, UniProt P06278); experiment: as above; assay type: biochemical; conditions: phosphate buffered saline; 3.8 µM enzyme; 303-363 K, 2 K/min
T3 construct: gene amyS; commercial enzyme (Sigma-Aldrich A3403)

purified protein = substrate: CCCC(=O)Oc1ccc([N+](=O)[O-])cc1; experiment: purified protein; assay type: biochemical, Bacillus pumilus; conditions: 298 K, 50 mM potassium phosphate pH 7.2, 5% acetonitrile, 1 nM enzyme, stepwise approach, 25.0 °C

T3 sequence (P06278 30-512): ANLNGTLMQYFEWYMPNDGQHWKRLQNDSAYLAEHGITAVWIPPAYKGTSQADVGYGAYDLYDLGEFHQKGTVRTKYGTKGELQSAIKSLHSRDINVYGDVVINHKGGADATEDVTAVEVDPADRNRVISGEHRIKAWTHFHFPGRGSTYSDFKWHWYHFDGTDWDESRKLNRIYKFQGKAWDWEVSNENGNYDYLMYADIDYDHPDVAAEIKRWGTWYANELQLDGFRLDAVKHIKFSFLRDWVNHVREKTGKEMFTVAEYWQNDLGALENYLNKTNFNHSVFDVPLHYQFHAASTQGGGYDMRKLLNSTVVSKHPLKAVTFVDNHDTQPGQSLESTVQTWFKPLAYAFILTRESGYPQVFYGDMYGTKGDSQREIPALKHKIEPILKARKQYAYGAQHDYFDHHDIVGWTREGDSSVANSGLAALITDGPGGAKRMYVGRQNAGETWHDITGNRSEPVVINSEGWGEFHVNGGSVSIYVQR

O=[N+]([O-])c1ccc(O[C@H]2O[C@H](CO)[C@@H](O[C@H]3O[C@H](CO)[C@@H](O[C@H]4O[C@H](CO)[C@@H](O)[C@H](O)[C@H]4O)[C@H](O)[C@H]3O)[C@H](O)[C@H]2O)c(Cl)c1 [2-Chloro-4-nitrophenyl-α-D-maltotrioside]
colourimetric, 405 nm, temperature gradient (ThermoSlope) [1]: α-amylases were completed in a similar fashion using the ThermoSlope-approach with the chromogenic substrate | colourimetric, 405 nm, temperature gradient (ThermoSlope) [2]: α-amylases were completed in a similar fashion using the ThermoSlope-approach with the chromogenic substrate | colourimetric, 405 nm, temperature gradient (ThermoSlope) [3]: α-amylases were completed in a similar fashion using the ThermoSlope-approach with the chromogenic substrate

B1: pLipA (Bacillus pumilus LipA; Lipase L5) (Bacillus pumilus) (protein)
chain: AEHNPVVMVHGMGGASYNFASIKSYLVTQGWDRNQLFAIDFIDKTGNNRNNGPRLSRFVKDVLGKTGAKKVDIVAHSMGGANTLYYIKNLDGGDKIENVVTLGGANGLVSLRALPGTDPNQKILYTSVYSSADMIVVNSLSRLIGARNVLIHGVGHISLLASSQVKGYIKEGLNGGGQNTN
notes: residues 35-215, codon-optimised synthetic gene in pET-22b(+) NdeI/XhoI, His-tag purified (tag removal not mentioned), E. coli NiCo21(DE3)
Km (purified protein): 500 ± 100 µM | kcat (purified protein): 310 ± 20 s⁻¹
